Measured values taken from patent US9573913B2, “Cathepsin cysteine protease inhibitors” (Merck Sharp & Dohme Corp., priority 2013, dated 2017).

What was measured:
human cathepsin K = human cathepsin K (UniProt P43236); assay: Cathepsin K Assay (hrbCat K); format: biochemical; settings: Z-Leu-Arg-AMC substrate, pH 5.5, 15 min preincubation; read-out: hrbCat K (IP (nM))
Outline: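 Human cathepsin K (0.4 nM) was preincubated 15 min at room temperature with compound in 50 mM MES pH 5.5, 2.5 mM EDTA, 2.5 mM DTT and 10% DMSO. Inhibition was fitted to a dose-response model.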

human cathepsin F = target: T1, human cathepsin F (Homo sapiens, UniProt Q9UBX1); assay: Cathepsin F assay (hCat F); format: biochemical; settings: Z-Phe-Arg-AMC substrate, pH 5.5, 15 min preincubation; read-out: hCat F (IP (nM))
T1 sequence (Q9UBX1 271-484): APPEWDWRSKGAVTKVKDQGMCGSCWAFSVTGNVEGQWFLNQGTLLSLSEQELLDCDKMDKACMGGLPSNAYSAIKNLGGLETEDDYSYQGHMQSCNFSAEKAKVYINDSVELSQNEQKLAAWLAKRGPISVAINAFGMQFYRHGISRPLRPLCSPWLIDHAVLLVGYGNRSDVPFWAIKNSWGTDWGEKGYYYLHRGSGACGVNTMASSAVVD
Outline: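 AMC release from Z-Phe-Arg-AMC, added at 8 μM, was monitored fluorometrically (360/460 nm) for 20 min after 10 nM enzyme and compound had been preincubated 15 min at room temperature. Buffer: MES 50 mM pH 5.5, EDTA and DTT 2.5 mM each, 10% DMSO. Compound DMSO dilutions spanned 500–0.025 μM (3-fold). Dose-response fitting gave % inhibition.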

Structure (SMILES)	IC50 (human cathepsin K)	IC50 (human cathepsin F)
N#CC1(NC(=O)[C@@H]2CCCC[C@H]2c2nc(N3CC(F)(F)C3)sc2-c2ccc(N3CCS(=O)(=O)CC3)cc2)CC1 [Example 117, (1R,2R)-N-(1-cyanocyclopropyl)-2-(2-(3,3-difluoroazetidin-1-yl)-5-(4-(1,1-dioxidothiomorpho-lino)phenyl)thiazol-4-yl)cyclohexane-carboxamide]	8 nM	≥ 10000 nM
N#CC1(NC(=O)[C@@H]2CCCC[C@H]2c2nc(-c3ccnc(C(F)(F)F)n3)sc2-c2ccc(N3CCS(=O)(=O)CC3)cc2)CC1 [Example 118, (1R,2R)-N-(1-cyanocyclopropyl)-2-(5-(4-(1,1-dioxidothiomorpho-lino)phenyl)-2-(2-(trifluoromethyl)pyrimidin-4-yl)thiazol-4-yl)cyclohexane-carboxamide]	59.4 nM	≥ 10000 nM
Cc1nccc(-c2nc([C@@H]3CCCC[C@H]3C(=O)NC3(C#N)CC3)c(-c3ccc(N4CCS(=O)(=O)CC4)cc3)s2)n1 [Example 119, (1R,2R)-N-(1-cyanocyclopropyl)-2-(5-(4-(1,1-dioxidothiomorpho-lino)phenyl)-2-(2-methylpyrimidin-4-yl)thiazol-4-yl)cyclohexane-carboxamide]	1.3 nM	1200 nM
N#CC1(NC(=O)[C@@H]2CCCC[C@H]2c2nc(-c3ccc4c(c3)OCCO4)sc2-c2ccc(N3CCS(=O)(=O)CC3)cc2)CC1 [Example 120, (1R,2R)-N-(1-cyanocyclopropyl)-2-(2-(2,3-dihydrobenzo[b][1,4]dioxin-6-yl)-5-(4-(1,1-dioxidothiomorpho-lino)phenyl)thiazol-4-yl)cyclohexane-carboxamide]	1.4 nM	1110 nM
N#CC1(NC(=O)[C@@H]2CCCC[C@H]2c2nc(-c3ccc(C4CCOCC4)cc3)sc2-c2ccc(N3CCS(=O)(=O)CC3)cc2)CC1 [Example 121, (1S,2R)-N-(1-cyanocyclopropyl)-2-(5-(4-(1,1-dioxidothiomorpho-lino)phenyl)-2-(4-(tetrahydro-2H-pyran-4-yl)phenyl)thiazol-4-yl)cyclohexane-carboxamide]	1.5 nM	1110 nM
N#CC1(NC(=O)[C@@H]2CCCC[C@H]2c2nc(-c3ccc(F)c(C4CCOCC4)c3)sc2-c2ccc(N3CCS(=O)(=O)CC3)cc2)CC1 [Example 122, (1R,2R)-N-(1-cyanocyclopropyl)-2-(5-(4-(1,1-dioxidothiomorpho-lino)phenyl)-2-(4-fluoro-3-(tetrahydro-2H-pyran-4-yl)phenyl)thiazol-4-yl)cyclohexane-carboxamide]	2.2 nM	1110 nM
N#CCNC(=O)[C@@H]1C[C@@H](F)CC[C@H]1c1nc(-c2cncc(F)c2)sc1-c1ccc(N2CCS(=O)(=O)CC2)cc1 [Example 123, (1R,2R,5S)-N-(cyanomethyl)-2-(5-(4-(1,1-dioxidothiomorpho-lino)phenyl)-2-(5-fluoropyridin-3-yl)thiazol-4-yl)-5-fluorocyclohexane-carboxamide]	1.7 nM	2490 nM
N#CCNC(=O)[C@@H]1C[C@@H](F)CC[C@H]1c1nc(-c2ccc(F)cn2)sc1-c1ccc(N2CCS(=O)(=O)CC2)cc1 [Example 124, (1R,2R,5S)-N-(cyanomethyl)-2-(5-(4-(1,1-dioxidothiomorpho-lino)phenyl)-2-(5-fluoropyridin-2-yl)thiazol-4-yl)-5-fluorocyclohexane-carboxamide]	1.8 nM	3120 nM
CS(=O)(=O)c1ccc(-c2sc(-c3cncc(F)c3)nc2[C@@H]2CCCC[C@H]2C(=O)NC2(C#N)CC2)cc1 [Example 125, (1R,2R)-N-(1-cyanocyclopropyl)-2-(2-(5-fluoropyridin-3-yl)-5-(4-(methylsulfonyl)phenyl)thiazol-4-yl)cyclohexane-carboxamide]	7.5 nM	310 nM
Cc1ncc(-c2nc([C@@H]3CC[C@H](F)C[C@H]3C(=O)NC3(C#N)CC3)c(-c3ccc(N4CCS(=O)(=O)CC4)cc3)s2)s1 [Example 128, (1R,2R,5S)-N-(1-cyanocyclopropyl)-2-(5-(4-(1,1-dioxidothiomorpho-lino)phenyl)-2′-methyl-[2,5′-bithiazol]-4-yl)-5-fluorocyclohexane-carboxamide]	1.8 nM	≥ 10000 nM
C[C@H](C#N)NC(=O)[C@@H]1C[C@@H](F)CC[C@H]1c1nc(-c2ccc(F)cn2)sc1-c1ccc(N2CCS(=O)(=O)CC2)cc1 [Example 129, (1R,2R,5S)-N-((R)-1-cyanoethyl)-2-(5-(4-(1,1-dioxidothiomorpho-lino)phenyl)-2-(5-fluoropyridin-2-yl)thiazol-4-yl)-5-fluorocyclohexane-carboxamide]	25.5 nM	≥ 10000 nM
C[C@@H](C#N)NC(=O)[C@@H]1C[C@@H](F)CC[C@H]1c1nc(-c2ccc(F)cn2)sc1-c1ccc(N2CCS(=O)(=O)CC2)cc1 [Example 130, (1R,2R,5S)-N-((S)-1-cyanoethyl)-2-(5-(4-(1,1-dioxidothiomorpho-lino)phenyl)-2-(5-fluoropyridin-2-yl)thiazol-4-yl)-5-fluorocyclohexane-carboxamide]	0.9 nM	1000 nM
CS(=O)(=O)c1ccc(-c2sc(-c3cccnc3)nc2[C@@H]2CCCC[C@H]2C(=O)NC2(C#N)CC2)cc1 [Example 131, (1R,2R)-N-(1-cyanocyclopropyl)-2-(5-(4-(methylsulfonyl)phenyl)-2-(pyridin-3-yl)thiazol-4-yl)cyclohexane-carboxamide]	39.7 nM	1790 nM
N#CC1(NC(=O)[C@@H]2CCCC[C@H]2c2nc(-c3cccc(C(F)(F)F)n3)sc2-c2ccc(N3CCS(=O)(=O)CC3)cc2)CC1 [Example 132, (1R,2R)-N-(1-cyanocyclopropyl)-2-(5-(4-(1,1-dioxidothiomorpho-lino)phenyl)-2-(6-(trifluoromethyl)pyridin-2-yl)thiazol-4-yl)cyclohexane-carboxamide]	1.8 nM	2340 nM
CC1(c2nc([C@@H]3CCCC[C@H]3C(=O)NC3(C#N)CC3)c(-c3ccc(N4CCS(=O)(=O)CC4)cc3)s2)CCOCC1 [Example 133, (1R,2R)-N-(1-cyanocyclopropyl)-2-(5-(4-(1,1-dioxidothiomorpho-lino)phenyl)-2-(4-methyltetrahydro-2H-pyran-4-yl)thiazol-4-yl)cyclohexane-carboxamide]	4.9 nM	≥ 10000 nM
N#CC1(NC(=O)[C@@H]2CCCC[C@H]2c2nc(-c3cncc(F)c3)sc2-c2ccc(N3CCS(=N)(=O)CC3)cc2)CC1 [Example 135, (1R,2R)-N-(1-cyanocyclopropyl)-2-(2-(5-fluoropyridin-3-yl)-5-(4-(1-imino-1-oxidothiomorpholino)phenyl)thiazol-4-yl)cyclohexane-carboxamide]	1.2 nM	1560 nM
N#CC1(NC(=O)[C@@H]2CCCC[C@H]2c2nc(-c3ccc(F)cn3)sc2-c2ccc(N3CCS(=N)(=O)CC3)cc2)CC1 [Example 136, (1R,2R)-N-(1-cyanocyclopropyl)-2-(2-(5-fluoropyridin-2-yl)-5-(4-(1-imino-1-oxidothiomorpholino)phenyl)thiazol-4-yl)cyclohexane-carboxamide]	1.9 nM	1660 nM
CN=S1(=O)CCN(c2ccc(-c3sc(-c4cncc(F)c4)nc3[C@@H]3CCCC[C@H]3C(=O)NC3(C#N)CC3)cc2)CC1 [Example 138, (1R,2R)-N-(1-cyanocyclopropyl)-2-(2-(5-fluoropyridin-3-yl)-5-(4-(1-(methylimino)-1-oxidothiomorpholino)phenyl)thiazol-4-yl)cyclohexane-carboxamide]	1.9 nM	2130 nM
CN=S1(=O)CCN(c2ccc(-c3sc(-c4ccc(F)cn4)nc3[C@@H]3CCCC[C@H]3C(=O)NC3(C#N)CC3)cc2)CC1 [Example 139, (1R,2R)-N-(1-cyanocyclopropyl)-2-(2-(5-fluoropyridin-2-yl)-5-(4-(1-(methylimino)-1-oxidothiomorpholino)phenyl)thiazol-4-yl)cyclohexane-carboxamide]	3.3 nM	2750 nM
N#CC1(NC(=O)[C@@H]2C[C@@H](F)CC[C@H]2c2nc(-c3ccc(F)cn3)sc2-c2ccc(N3CCS(=N)(=O)CC3)cc2)CC1 [Example 141, (1R,2R,5S)-N-(1-cyanocyclopropyl)-5-fluoro-2-(2-(5-fluoropyridin-2-yl)-5-(4-(1-imino-1-oxidothiomorpholino)phenyl)thiazol-4-yl)cyclohexane-carboxamide]	2.3 nM	1000 nM
CC1(C)CN(c2nc([C@@H]3CCCC[C@H]3C(=O)NC3(C#N)CC3)c(-c3ccc(N4CCS(=O)(=O)CC4)cc3)s2)CCO1 [Example 142, (1R,2R)-N-(1-cyanocyclopropyl)-2-(2-(2,2-dimethylmorpholino)-5-(4-(1,1-dioxidothiomorpho-lino)phenyl)thiazol-4-yl)cyclohexane-carboxamide]	5.8 nM	3400 nM
CNC(=O)N1CC(c2ccc(-c3sc(-c4ccc(F)cc4)nc3[C@@H]3CCCC[C@H]3C(=O)NC3(C#N)CC3)cc2)C1 [Example 143, 3-(4-(4-((1R,2R)-2-((1-cyanocyclopropyl)carbamoyl)cyclohex-yl)-2-(4-fluorophenyl)thiazol-5-yl)phenyl)-N-methylazetidine-1-carboxamide]	2 nM	134 nM
